“Also recorded” adds a separate entry of the source.
Target: T1, GCase in fibroblasts bearing the N370S/RecNcil mutation (Homo sapiens, UniProt P04062, A495P/L483P/N409S)
T1 construct: fibroblasts derived from Gaucher patients bearing the N370S/RecNcil and L444P/L444P mutations; host or cells: fibroblasts from Gaucher disease patients, N370S/RecNcil
T1 sequence (P04062 40-536 N409S): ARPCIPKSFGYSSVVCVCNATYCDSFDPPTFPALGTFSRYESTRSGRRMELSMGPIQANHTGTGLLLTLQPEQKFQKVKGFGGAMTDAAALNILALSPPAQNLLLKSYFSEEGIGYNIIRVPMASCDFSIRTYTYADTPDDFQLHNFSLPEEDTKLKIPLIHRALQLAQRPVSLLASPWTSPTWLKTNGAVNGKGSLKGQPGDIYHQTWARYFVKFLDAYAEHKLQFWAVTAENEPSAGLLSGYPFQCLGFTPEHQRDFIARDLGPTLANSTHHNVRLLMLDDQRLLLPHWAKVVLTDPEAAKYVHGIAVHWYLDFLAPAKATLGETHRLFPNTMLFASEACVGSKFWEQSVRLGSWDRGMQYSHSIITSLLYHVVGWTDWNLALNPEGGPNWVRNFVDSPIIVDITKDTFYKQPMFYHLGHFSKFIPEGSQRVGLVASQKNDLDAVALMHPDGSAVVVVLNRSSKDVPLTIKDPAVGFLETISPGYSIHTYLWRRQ
Test: Pharmacological chaperoning activity in N370S/RecNcil Gaucher fibroblasts
Format: cell-based
Conditions: for GCase enzymatic activity rescue: 4 days incubation; for cell viability: 50 µM and 100 µM, 4 days
Experimental: The ability of compounds 14 and 15 to enhance the activity of GCase after incubation (4 days) with fibroblasts bearing the selected mutations was evaluated. The experiments were performed using fibroblasts derived from Gaucher patients bearing the N370S/RecNcil and L444P/L444P mutations (see the Supporting Information section).
Fibroblasts with the N370S/RecNcil (or L444P/L444P) mutation from Gaucher disease patients were obtained from the “Cell line and DNA Biobank from patients affected by Genetic Diseases” (Gaslini Hospital, Genova, Italy). Fibroblast cells (15.0 × 10^4) were seeded in T25 flasks with DMEM supplemented with fetal bovine serum (10%), penicillin/streptomycin (1%), and glutamine (1%) and incubated at 37 °C with 5% CO2 for 24 h. The medium was removed, and fresh medium containing the compounds (14, 15 and 33·HCl) was added to the cells and incubated for 4 days. The medium was removed, and the cells were washed with PBS and detached with trypsin to obtain cell pellets, which were washed four times with PBS, frozen, and lysed by sonication in water. Enzyme activity was measured as reported above. Reported data are mean S.D. (n = 2).
Pharmacological chaperoning activity
Figure S50. Fibroblasts derived from GD patients bearing N370S/RecNcil mutations were incubated without (control, ctrl) or with 7 different concentrations (10 nM, 50 nM, 100 nM, 1 μM, 10 μM, 50 μM, 100 μM) of compounds 14 and 15. After 4 days, the flasks containing cells incubated with 50 µM and 100 µM […]
other concentrations, the GCase activity was determined in lysates from treated fibroblasts. Reported data are mean S.D. (n=2).
(also on this page, place not known: beta glucosidase activity (nmol/mg/h) beta glucosidase activity (nmol/mg/h)) […]
Figure S51. Fibroblasts derived from GD patients bearing N370S/RecNcil mutations were incubated without (control, ctrl) or with […] different concentrations (5 nM, 10 nM, 100 nM, 1 μM, 10 μM, 30 μM) of compound 33.HCl. After 4 days, the GCase activity was determined in lysates from treated fibroblasts. Reported […]
(also on this page, place not known: beta glucosidase activity (nmol/mg/h))

| Structure (SMILES) | GCase enzymatic activity rescue (5 nM to 30 μM) | cell viability | GCase enzymatic activity rescue (5 nM to 10 μM) |
| --- | --- | --- | --- |
| CCCCCCCC[C@@H]1[C@@H](O)[C@H](O)[C@H](O)CN1C(CCCCCCC)CCCCCCC.Cl [compound 33·HCl, (2R,3R,4R,5R)-2-Octyl-1-(pentadecan-8-yl)-piperidine-3,4,5-triol Hydrochloride] | no enzymatic activity rescue; also recorded: no GCase activity enhancements |  |  |
| CCCCCCCC[C@H]1[C@@H](O)[C@H](O)[C@H](O)CN1CCCCCCCC [compound 14, (2S,3R,4R,5R)-1,2-Dioctylpiperidine-3,4,5-triol] |  | low cell viability | no enzymatic activity rescue; also recorded: no GCase activity enhancements |
| CCCCCCCC[C@@H]1[C@@H](O)[C@H](O)[C@H](O)CN1CCCCCCCC [compound 15, (2R,3R,4R,5R)-1,2-Dioctylpiperidine-3,4,5-triol] |  | low cell viability | no enzymatic activity rescue; also recorded: no GCase activity enhancements |

Source: PMC8453635, “Piperidine Azasugars Bearing Lipophilic Chains: Stereoselective Synthesis and Biological Activity as Inhibitors of Glucocerebrosidase (GCase)” (The Journal of Organic Chemistry, 2021)
